Measurements from PubChem BioAssay AID248 (DTP/NCI, 2004).
“And” between values parts separate entries of the source, which are not always exact repeats. Identical values can stand only once. Toxic doses and inconclusive results are not listed. Cut-off read from the data, not from the text of the source: active = T/C of 150% or more; inactive = T/C below 125%.

Tested on: L1210 leukemia ip in BDF1 mice, survival T/C
Test: NCI In Vivo Anticancer Drug Screen. Data for tumor model L1210 Leukemia (intraperitoneal) in B6D2F1 (BDF1) mice
Conditions: endpoint: mean survival time, higher = longer survival
Summary of the method: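 Value reflects the ratio of survival in compound-treated mice to survival in vehicle-treated controls, with both groups carrying the same transplanted tumor.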

[1] = dose: 100.0 mg/kg/injection, schedule: Q01DX009 (ip), vehicle: Klucel (hydroxypropylcellulose) (HPC)
[2] = dose: 200.0 mg/kg/injection, schedule: Q01DX009 (ip), vehicle: Klucel (hydroxypropylcellulose) (HPC)
[3] = dose: 400.0 mg/kg/injection, schedule: Q01DX009 (ip), vehicle: Klucel (hydroxypropylcellulose) (HPC)
[4] = dose: 100.0 mg/kg/injection, schedule: Q01DX009 (ip), vehicle: saline with Tween-80
[5] = dose: 200.0 mg/kg/injection, schedule: Q01DX009 (ip), vehicle: saline with Tween-80
[6] = dose: 400.0 mg/kg/injection, schedule: Q01DX009 (ip), vehicle: saline with Tween-80
[7] = dose: 100.0 mg/kg/injection, schedule: Q01DX001 (ip), vehicle: saline
[8] = dose: 100.0 mg/kg/injection, schedule: Q04DX003 (ip), vehicle: saline
[9] = dose: 200.0 mg/kg/injection, schedule: Q01DX001 (ip), vehicle: saline
[10] = dose: 200.0 mg/kg/injection, schedule: Q04DX003 (ip), vehicle: saline
[11] = dose: 400.0 mg/kg/injection, schedule: Q01DX001 (ip), vehicle: saline
[12] = dose: 400.0 mg/kg/injection, schedule: Q04DX003 (ip), vehicle: saline

Measured: T/C

O=[N+]([O-])c1ccc(C(O)CC(O)(C(F)(F)F)C(F)(F)F)cc1 (stereo unspecified)
inactive: [1] 93 % of control | dose: 100.0 mg/kg/injection, schedule: Q04DX003 (ip), vehicle: Klucel (hydroxypropylcellulose) (HPC) 94 % of control | [2] 94 % of control | dose: 200.0 mg/kg/injection, schedule: Q04DX003 (ip), vehicle: Klucel (hydroxypropylcellulose) (HPC) 91 % of control | [3] 97 % of control | dose: 400.0 mg/kg/injection, schedule: Q04DX003 (ip), vehicle: Klucel (hydroxypropylcellulose) (HPC) 95 % of control

CCC(CC)=NNS(=O)(=O)c1ccccc1
inactive: dose: 75.0 mg/kg/injection, schedule: Q01DX001 (ip), vehicle: saline 100 % of control | dose: 150.0 mg/kg/injection, schedule: Q01DX001 (ip), vehicle: saline 100 % of control | dose: 300.0 mg/kg/injection, schedule: Q01DX001 (ip), vehicle: saline 102 % of control

FC1(F)SC2c3cccc4cccc(c34)C2C1(F)F (stereo unspecified)
inactive: [4] 102 % of control | [5] 104 % of control | [6] 96 % of control

CCCC(=O)Nc1ccc([N+](=O)[O-])cc1OC
inactive: [4] 105 % of control | [5] 94 % of control | [6] 94 % of control

O=c1nc2n(CCC[N+](=O)[O-])c3ccccc3nc-2c(=O)[nH]1
inactive: [7] 102 % of control | [8] 88 % of control | [9] 98 % of control | [10] 96 % of control | [11] 102 % of control | [12] 115 % of control

C/C(=N/O)c1ccc(O)cc1
inactive: [4] 103 % of control | [5] 96 % of control | [6] 97 % of control

CC1CC[N-]CC1.CC1CC[N-]CC1.CS(C)=O.[Cl][Rh]([Cl])[Cl]
inactive: dose: 3.0 mg/kg/injection, schedule: Q01DX009 (ip), vehicle: saline with Tween-80 98 % of control | dose: 6.0 mg/kg/injection, schedule: Q01DX009 (ip), vehicle: saline with Tween-80 106 % of control | dose: 12.0 mg/kg/injection, schedule: Q01DX009 (ip), vehicle: saline with Tween-80 109 % of control

O=C(OC1COC(OC(=O)c2ccc([N+](=O)[O-])cc2)C(OC(=O)c2ccc([N+](=O)[O-])cc2)C1OC(=O)c1ccc([N+](=O)[O-])cc1)c1ccc([N+](=O)[O-])cc1 (stereo unspecified)
inactive: [7] 93 % of control | [9] 96 % of control | [11] 96 % of control

CCOC(=O)c1cc(C)nc2ccc(Br)cc12
inactive: dose: 100.0 mg/kg/injection, schedule: Q04DX002 (ip), vehicle: saline with Tween-80 97 % of control | dose: 200.0 mg/kg/injection, schedule: Q04DX002 (ip), vehicle: saline with Tween-80 108 % of control | dose: 400.0 mg/kg/injection, schedule: Q04DX002 (ip), vehicle: saline with Tween-80 97 % of control

C=NN=C(N)N
inactive: dose: 0.38 mg/kg/injection, schedule: Q01DX Z (ip), vehicle: saline 100 % of control | dose: 0.75 mg/kg/injection, schedule: Q01DX Z (ip), vehicle: saline 92 % of control | dose: 3.0 mg/kg/injection, schedule: Q01DX Z (ip), vehicle: saline 87 % of control | dose: 6.0 mg/kg/injection, schedule: Q01DX Z (ip), vehicle: saline 106 % of control | dose: 12.0 mg/kg/injection, schedule: Q01DX Z (ip), vehicle: saline 102 % of control | dose: 15.0 mg/kg/injection, schedule: Q01DX Z (ip), vehicle: saline 100 % of control | dose: 15.0 mg/kg/injection, schedule: Q01DX Z (oral), vehicle: saline 86 % of control | dose: 30.0 mg/kg/injection, schedule: Q01DX Z (ip), vehicle: saline 105 % of control | dose: 30.0 mg/kg/injection, schedule: Q01DX Z (oral), vehicle: saline 92 % of control

CSc1ccc(OC(=O)Nc2cccc3ccccc23)cc1C
inactive: dose: 100.0 mg/kg/injection, schedule: Q04DX002 (ip), vehicle: Klucel (hydroxypropylcellulose) (HPC) 101 % of control | dose: 200.0 mg/kg/injection, schedule: Q04DX002 (ip), vehicle: Klucel (hydroxypropylcellulose) (HPC) 101 % of control | dose: 400.0 mg/kg/injection, schedule: Q04DX002 (ip), vehicle: Klucel (hydroxypropylcellulose) (HPC) 104 % of control

c1ccc2c(c1)ccc1cc3cc(NCCCCNc4ccc5nc6c(ccc7ccccc76)cc5c4)ccc3nc12
inactive: dose: 1.56 mg/kg/injection, schedule: Q01DX009 (ip), vehicle: saline with Tween-80 95 % of control | dose: 3.13 mg/kg/injection, schedule: Q01DX009 (ip), vehicle: saline with Tween-80 92 % of control | dose: 6.25 mg/kg/injection, schedule: Q01DX009 (ip), vehicle: saline with Tween-80 95 % of control and 111 % of control | dose: 12.5 mg/kg/injection, schedule: Q01DX009 (ip), vehicle: saline with Tween-80 87 % of control

CC(=O)NC1=C(S(=O)(=O)O)c2ccccc2C1
inactive: [7] 105 % of control | dose: 100.0 mg/kg/injection, schedule: Q01DX009 (ip), vehicle: saline 98 % of control | dose: 100.0 mg/kg/injection, schedule: Q04DX002 (ip), vehicle: saline 94 % of control and 110 % of control and 118 % of control | [8] 104 % of control | [9] 115 % of control | dose: 200.0 mg/kg/injection, schedule: Q01DX009 (ip), vehicle: saline 98 % of control and 104 % of control | dose: 200.0 mg/kg/injection, schedule: Q04DX002 (ip), vehicle: saline 94 % of control and 103 % of control | [10] 96 % of control | [11] 108 % of control | dose: 400.0 mg/kg/injection, schedule: Q01DX009 (ip), vehicle: saline 105 % of control and 106 % of control | dose: 400.0 mg/kg/injection, schedule: Q04DX002 (ip), vehicle: saline 102 % of control and 109 % of control and 88 % of control | [12] 102 % of control

CC(=O)c1cc2c(cc1C)OCO2
inactive: [7] 103 % of control | [9] 97 % of control | [11] 101 % of control

COc1ccc(NC(=O)Nc2ccc(NC(C)=O)cc2)cc1
inactive: [4] 86 % of control | [5] 92 % of control

O=C(O)c1ccc2c(c1)Cc1ccccc1-2
inactive: dose: 75.0 mg/kg/injection, schedule: Q01DX001 (ip), vehicle: carboxymethylcellulose (CMC) 96 % of control | dose: 150.0 mg/kg/injection, schedule: Q01DX001 (ip), vehicle: carboxymethylcellulose (CMC) 95 % of control | dose: 300.0 mg/kg/injection, schedule: Q01DX001 (ip), vehicle: carboxymethylcellulose (CMC) 102 % of control

CCOC(=O)c1ccc(NC(=S)N2CCOCC2)cc1
inactive: [1] 93 % of control | [2] 101 % of control | [3] 93 % of control

CC1CCC2(C)CCC(C(C)C)C2(O)CC1 (stereo unspecified)
inactive: dose: 50.0 mg/kg/injection, schedule: Q01DX009 (ip), vehicle: saline sonified 90 % of control | dose: 100.0 mg/kg/injection, schedule: Q01DX009 (ip), vehicle: saline sonified 97 % of control | dose: 100.0 mg/kg/injection, schedule: Q04DX003 (ip), vehicle: saline sonified 107 % of control | dose: 200.0 mg/kg/injection, schedule: Q01DX009 (ip), vehicle: saline sonified 92 % of control | dose: 200.0 mg/kg/injection, schedule: Q04DX003 (ip), vehicle: saline sonified 100 % of control

CCCCOP(=O)(OCCCC)Oc1ccc2ccccc2c1
inactive: dose: 50.0 mg/kg/injection, schedule: Q01DX009 (ip), vehicle: other 97 % of control and 88 % of control | dose: 100.0 mg/kg/injection, schedule: Q01DX009 (ip), vehicle: other 94 % of control | dose: 100.0 mg/kg/injection, schedule: Q04DX002 (ip), vehicle: other 94 % of control and 96 % of control | dose: 100.0 mg/kg/injection, schedule: Q04DX003 (ip), vehicle: carboxymethylcellulose (CMC) 102 % of control | dose: 200.0 mg/kg/injection, schedule: Q01DX009 (ip), vehicle: other 100 % of control and 102 % of control | dose: 200.0 mg/kg/injection, schedule: Q04DX002 (ip), vehicle: other 96 % of control and 92 % of control | dose: 200.0 mg/kg/injection, schedule: Q04DX003 (ip), vehicle: carboxymethylcellulose (CMC) 100 % of control | dose: 400.0 mg/kg/injection, schedule: Q04DX002 (ip), vehicle: other 94 % of control and 96 % of control | dose: 400.0 mg/kg/injection, schedule: Q04DX003 (ip), vehicle: carboxymethylcellulose (CMC) 97 % of control
